These results are taken from ChEMBL document CHEMBL6092156, “Design and development of a series of 4-(piperazin-1-yl)pyrimidines as irreversible menin inhibitors” (Eur J Med Chem, 2024).

SMILES strings stand for the structures. Where only a bound is given, the exact number is not on record here.

Series [1] has as its target Menin/Histone-lysine N-methyltransferase MLL (Homo sapiens, UniProt O00255). The series can be described thus: Inhibition of menin (unknown origin)/N-terminal FITC-labeled MLL1 peptide (unknown origin) interaction incubated for 30 min by fluorescence polarization assay. It counts as protein assay.
The subject of series [2] is MV4-11. The series can be described thus: Antiproliferative activity against human menin-sensitive MV4-11 cells assessed as inhibition of cell growth incubated for 7 days by MTS assay. It counts as functional, cell-based. The following applies: MV4-11, 168 h. On the technique in general: Tetrazolium dyes change colour on reduction, which living cells bring about.
A further series relates to REH. The series can be described thus: Antiproliferative activity against human menin-insensitive REH cells assessed as inhibition of cell growth incubated for 7 days by MTS assay. The class given is functional, cell-based. As to conditions: 168 h.
Series [3] has as its system MV4-11. In words: Antiproliferative activity against human MV4-11 cells assessed as cell growth inhibition after 4 days. It counts as functional, cell-based. As to conditions: MV4-11, 96 h.
Series [4] can be described thus: Suppression of MEN1 gene transcription in human MV4-11 cells assessed as protein synthesis by measuring fold change at 50 ug/ml incubated for 12 hrs relative to control. It counts as functional. As to conditions: dose 50 µg/ml.
The nature of series [5]: Suppression of MEN1 gene transcription in human MV4-11 cells assessed as protein synthesis by measuring fold change at 50 ug/ml incubated for 24 hrs relative to control. It counts as functional. The following applies: dose 50 µg/ml.
Series [6] can be described thus: Suppression of MEN1 gene transcription in human MV4-11 cells assessed as protein synthesis by measuring fold change at 50 ug/ml incubated for 36 hrs relative to control. The class given is functional. As to conditions: dose 50 µg/ml.
The nature of series [7]: Suppression of MEN1 gene transcription in human MV4-11 cells assessed as protein synthesis by measuring fold change at 50 ug/ml incubated for 48 hrs relative to control. The class given is functional. As to conditions: dose 50 µg/ml.
Series [8] in a line: Cytotoxicity against human PBMC cells assessed as cell viability incubated for 7 days by MTS assay. It counts as toxicity, cell-based.
The nature of series [9]: Suppression of MEN1 gene transcription in human MV4-11 cells assessed as protein synthesis by measuring fold change at 20 nM incubated for 16 hrs relative to control. The class given is functional.

Menin/Histone-lysine N-methyltransferase MLL, sequence (O00255 whole entry): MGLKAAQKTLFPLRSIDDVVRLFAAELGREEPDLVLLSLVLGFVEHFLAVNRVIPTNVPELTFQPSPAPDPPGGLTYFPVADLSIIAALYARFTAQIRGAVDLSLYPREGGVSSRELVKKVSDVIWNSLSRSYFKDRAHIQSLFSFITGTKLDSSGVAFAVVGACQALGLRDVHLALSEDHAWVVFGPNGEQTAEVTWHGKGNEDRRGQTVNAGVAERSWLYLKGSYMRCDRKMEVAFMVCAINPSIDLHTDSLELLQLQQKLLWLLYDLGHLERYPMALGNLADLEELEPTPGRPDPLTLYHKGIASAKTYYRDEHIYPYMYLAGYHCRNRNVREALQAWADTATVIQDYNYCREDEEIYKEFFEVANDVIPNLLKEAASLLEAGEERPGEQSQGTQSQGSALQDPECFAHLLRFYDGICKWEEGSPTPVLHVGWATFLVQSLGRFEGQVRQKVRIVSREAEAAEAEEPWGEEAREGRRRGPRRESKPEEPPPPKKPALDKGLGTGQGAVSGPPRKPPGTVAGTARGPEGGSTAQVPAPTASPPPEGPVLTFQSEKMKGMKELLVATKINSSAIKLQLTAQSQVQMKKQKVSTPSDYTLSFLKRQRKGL
Menin/Histone-lysine N-methyltransferase MLL, sequence (Q03164 1-2718 partner limits assumed): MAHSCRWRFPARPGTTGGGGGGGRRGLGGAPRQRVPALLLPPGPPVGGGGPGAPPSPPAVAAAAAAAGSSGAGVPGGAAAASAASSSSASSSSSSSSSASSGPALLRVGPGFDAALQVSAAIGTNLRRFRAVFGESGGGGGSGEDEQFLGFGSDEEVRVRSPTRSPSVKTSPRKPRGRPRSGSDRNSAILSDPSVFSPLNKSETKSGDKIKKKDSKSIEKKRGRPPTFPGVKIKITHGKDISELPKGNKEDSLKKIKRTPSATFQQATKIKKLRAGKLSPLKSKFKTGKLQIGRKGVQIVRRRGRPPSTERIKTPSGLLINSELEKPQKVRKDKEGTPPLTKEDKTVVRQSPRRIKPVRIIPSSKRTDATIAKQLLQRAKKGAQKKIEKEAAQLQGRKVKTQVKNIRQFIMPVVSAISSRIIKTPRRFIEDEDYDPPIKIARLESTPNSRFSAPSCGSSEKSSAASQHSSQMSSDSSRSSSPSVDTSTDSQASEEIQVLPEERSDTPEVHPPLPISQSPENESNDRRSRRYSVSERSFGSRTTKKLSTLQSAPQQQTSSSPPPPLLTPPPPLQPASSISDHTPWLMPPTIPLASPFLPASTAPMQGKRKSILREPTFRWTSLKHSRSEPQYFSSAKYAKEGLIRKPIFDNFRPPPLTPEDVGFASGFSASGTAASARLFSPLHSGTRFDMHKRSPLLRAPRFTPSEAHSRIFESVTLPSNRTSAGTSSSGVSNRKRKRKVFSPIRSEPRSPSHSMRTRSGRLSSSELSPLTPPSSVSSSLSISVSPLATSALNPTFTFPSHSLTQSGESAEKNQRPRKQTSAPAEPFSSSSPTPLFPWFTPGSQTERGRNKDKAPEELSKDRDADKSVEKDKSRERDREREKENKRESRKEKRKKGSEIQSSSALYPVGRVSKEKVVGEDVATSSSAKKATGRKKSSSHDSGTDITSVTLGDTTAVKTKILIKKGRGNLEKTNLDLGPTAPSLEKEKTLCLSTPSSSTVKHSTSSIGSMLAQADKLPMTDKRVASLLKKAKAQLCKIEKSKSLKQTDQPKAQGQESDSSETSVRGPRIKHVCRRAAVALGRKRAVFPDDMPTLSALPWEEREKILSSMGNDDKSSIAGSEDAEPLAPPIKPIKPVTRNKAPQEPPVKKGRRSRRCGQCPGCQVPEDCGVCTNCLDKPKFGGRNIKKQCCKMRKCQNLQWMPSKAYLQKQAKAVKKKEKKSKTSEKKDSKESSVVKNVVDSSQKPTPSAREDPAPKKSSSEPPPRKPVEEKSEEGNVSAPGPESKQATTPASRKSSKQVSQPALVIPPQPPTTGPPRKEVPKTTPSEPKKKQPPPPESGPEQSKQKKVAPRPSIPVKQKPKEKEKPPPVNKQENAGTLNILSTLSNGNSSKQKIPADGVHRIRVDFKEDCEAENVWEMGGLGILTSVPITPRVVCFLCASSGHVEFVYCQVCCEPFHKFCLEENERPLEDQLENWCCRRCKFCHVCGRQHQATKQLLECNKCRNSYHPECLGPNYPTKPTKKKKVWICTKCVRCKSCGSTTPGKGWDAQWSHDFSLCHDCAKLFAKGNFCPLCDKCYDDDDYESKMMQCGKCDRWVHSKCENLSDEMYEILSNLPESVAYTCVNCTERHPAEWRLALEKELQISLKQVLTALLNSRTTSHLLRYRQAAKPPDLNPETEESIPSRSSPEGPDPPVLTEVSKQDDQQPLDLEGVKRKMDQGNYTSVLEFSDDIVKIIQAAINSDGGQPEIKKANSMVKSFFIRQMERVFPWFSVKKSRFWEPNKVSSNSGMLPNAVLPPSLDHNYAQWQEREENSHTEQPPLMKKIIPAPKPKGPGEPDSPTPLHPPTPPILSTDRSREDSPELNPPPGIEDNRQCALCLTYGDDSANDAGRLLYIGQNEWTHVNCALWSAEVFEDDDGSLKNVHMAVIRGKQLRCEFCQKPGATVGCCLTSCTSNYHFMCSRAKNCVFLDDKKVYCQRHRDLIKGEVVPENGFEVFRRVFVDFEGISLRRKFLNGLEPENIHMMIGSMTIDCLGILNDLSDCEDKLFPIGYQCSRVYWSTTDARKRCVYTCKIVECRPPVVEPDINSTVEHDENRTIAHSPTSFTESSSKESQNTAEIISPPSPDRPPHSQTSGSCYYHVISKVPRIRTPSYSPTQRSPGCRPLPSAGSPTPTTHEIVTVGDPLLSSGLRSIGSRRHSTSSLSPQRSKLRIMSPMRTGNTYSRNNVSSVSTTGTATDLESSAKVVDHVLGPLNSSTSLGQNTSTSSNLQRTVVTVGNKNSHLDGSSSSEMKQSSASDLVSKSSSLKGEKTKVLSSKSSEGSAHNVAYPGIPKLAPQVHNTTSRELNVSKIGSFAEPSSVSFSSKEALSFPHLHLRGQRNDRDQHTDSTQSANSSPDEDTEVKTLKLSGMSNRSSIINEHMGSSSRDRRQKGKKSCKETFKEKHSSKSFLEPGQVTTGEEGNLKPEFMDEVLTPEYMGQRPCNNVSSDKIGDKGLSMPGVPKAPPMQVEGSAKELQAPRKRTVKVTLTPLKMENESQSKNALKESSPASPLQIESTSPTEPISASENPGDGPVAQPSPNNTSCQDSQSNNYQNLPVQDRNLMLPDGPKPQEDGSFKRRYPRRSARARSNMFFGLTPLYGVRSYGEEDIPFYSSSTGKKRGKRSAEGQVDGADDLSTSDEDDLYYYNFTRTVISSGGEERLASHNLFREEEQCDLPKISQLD
Menin/Histone-lysine N-methyltransferase MLL, sequence (Q03164 2719-3969 partner limits assumed): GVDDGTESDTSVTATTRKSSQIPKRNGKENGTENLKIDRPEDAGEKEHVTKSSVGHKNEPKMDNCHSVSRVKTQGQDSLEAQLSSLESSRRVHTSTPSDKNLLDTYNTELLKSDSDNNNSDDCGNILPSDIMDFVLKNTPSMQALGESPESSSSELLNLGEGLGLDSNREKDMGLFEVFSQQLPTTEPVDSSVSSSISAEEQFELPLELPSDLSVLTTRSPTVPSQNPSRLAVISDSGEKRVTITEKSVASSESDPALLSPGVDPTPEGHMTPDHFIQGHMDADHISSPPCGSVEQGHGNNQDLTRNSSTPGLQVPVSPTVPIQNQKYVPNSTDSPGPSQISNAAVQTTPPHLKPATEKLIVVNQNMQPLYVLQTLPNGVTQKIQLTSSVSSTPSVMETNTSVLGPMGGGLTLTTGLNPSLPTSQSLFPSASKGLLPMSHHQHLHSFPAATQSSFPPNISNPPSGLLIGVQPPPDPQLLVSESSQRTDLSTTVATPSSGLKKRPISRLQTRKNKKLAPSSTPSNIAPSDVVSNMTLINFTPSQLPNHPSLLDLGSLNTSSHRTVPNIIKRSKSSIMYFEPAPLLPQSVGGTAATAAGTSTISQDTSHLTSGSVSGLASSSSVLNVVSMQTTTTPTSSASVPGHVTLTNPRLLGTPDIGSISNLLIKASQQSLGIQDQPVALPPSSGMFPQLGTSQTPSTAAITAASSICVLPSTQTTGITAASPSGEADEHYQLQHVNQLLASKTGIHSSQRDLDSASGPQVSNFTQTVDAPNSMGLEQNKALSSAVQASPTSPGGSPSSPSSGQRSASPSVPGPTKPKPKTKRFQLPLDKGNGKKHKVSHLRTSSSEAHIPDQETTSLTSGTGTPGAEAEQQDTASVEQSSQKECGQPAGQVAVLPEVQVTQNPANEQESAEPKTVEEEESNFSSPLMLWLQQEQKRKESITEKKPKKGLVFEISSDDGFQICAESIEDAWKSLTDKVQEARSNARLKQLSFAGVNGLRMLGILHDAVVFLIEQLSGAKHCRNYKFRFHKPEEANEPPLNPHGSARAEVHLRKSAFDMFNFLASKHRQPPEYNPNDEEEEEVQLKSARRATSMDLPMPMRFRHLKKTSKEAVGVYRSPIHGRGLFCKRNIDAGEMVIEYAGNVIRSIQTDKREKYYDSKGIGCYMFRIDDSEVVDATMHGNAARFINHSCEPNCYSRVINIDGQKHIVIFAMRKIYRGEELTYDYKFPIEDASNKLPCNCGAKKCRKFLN

As to `C=CC(=O)NC1CN(S(=O)(=O)c2ccc(N3CC(CN4CCN(c5ncncc5Nc5ccc(F)cc5C(=O)N(CC)C(C)C)CC4)C3)cc2)C1`, the IC50 (usually the midpoint of a concentration-inhibition curve) in series [1] was 22.9 nM; in the series on MV4-11 [2], 283 nM; in the series with REH, over 20000 nM.

`CCN(C(=O)c1cc(F)ccc1Nc1cncnc1N1CCN(CC2CN(c3ccc(S(=O)(=O)N4CC[C@H](NC(=O)/C=C/CN(C)C)C4)cc3)C2)CC1)C(C)C`: the values for the IC50 (in [1]; in the series with MV4-11 [2]; in the series on REH) were 16.7 nM, 644 nM and over 20000 nM, respectively.

As for `CCN(C(=O)c1cc(F)ccc1Nc1cncnc1N1CCN(C(C)C2CN(c3ccc(S(=O)(=O)C4CN(C(=O)/C=C/CN(C)C)C4)cc3)C2)CC1)C(C)C` (stereo not given), the figures for the IC50 (in series [1]; in the series on MV4-11 [2]; with REH) were 18.4 nM, 140 nM and 7900 nM, respectively.

For the compound `CCN(C(=O)c1cc(F)ccc1Nc1cncnc1N1CCN(CC2CN(c3ccc(C(F)(F)F)cc3)C2)CC1)C(C)C`, the IC50 in series [1] stood at 186 nM.

As for `CCC(=O)N1CC(S(=O)(=O)c2ccc(N3CC(CN4CCN(c5ncncc5Nc5ccc(F)cc5C(=O)N(C(C)C)C(C)C)CC4)C3)cc2)C1`, the IC50 in series [1] was 32.8 nM; in the series with MV4-11 [2], 210 nM; with REH, over 20000 nM.

On to `CCN(C(=O)c1cc(F)ccc1Nc1cncnc1N1CCN(CC2CN(c3ccc(S(=O)(=O)C4CN(C(=O)/C=C/CN5CCCCC5)C4)cc3)C2)CC1)C(C)C`, for which the IC50 in series [1] was 16.6 nM; with MV4-11 [2] it was 30 nM; in the series with REH it was 7880 nM.

With `CCN(C(=O)c1cc(F)ccc1Nc1cncnc1N1CCN(CC2CN(c3ccc(S(=O)(=O)C4CN(C(=O)/C=C/CN(C)C)C4)cc3)C2)CC1)C(C)C`, the IC50 in series [1] was 14.2 nM; with MV4-11 [2] it was 30 nM; in the series with REH, 1930 nM.

In series [1], `CCN(C(=O)c1cc(F)ccc1Nc1cncnc1N1CCN(CC2CN(c3ccc(S(N)(=O)=O)cc3)C2)CC1)C(C)C` registered an IC50 of 21.6 nM.

Take `CCN(C(=O)c1cc(F)ccc1Nc1cncnc1N1CCN(CC2CN(c3ccc(S(=O)(=O)N4CC[C@@H](NC(=O)/C=C/CN(C)C)C4)cc3)C2)CC1)C(C)C`: the IC50 in series [1] was 11.3 nM; in the series with MV4-11 [2] it was 614 nM; in the series on REH, over 20000 nM.

In the case of `CCN(C(=O)c1cc(F)ccc1Nc1cncnc1N1CCN(CC2CN(c3ccc(S(=O)(=O)N4CC(NC(=O)/C=C/CN(C)C)C4)cc3)C2)CC1)C(C)C`, the IC50 in series [1] is 12.3 nM; with MV4-11 [2], 281 nM; in the series on REH it was over 20000 nM.

Turning to `CCN(C(=O)c1cc(F)ccc1Nc1cncnc1N1C[C@@H](C)N(CC2CN(c3ccc(S(=O)(=O)C4CN(C(=O)/C=C/CN(C)C)C4)cc3)C2)C[C@@H]1C)C(C)C`, the IC50 was 22.3 nM in series [1], 120 nM in the series with MV4-11 [2] and 18000 nM in the series with REH.

As to `C=CC(=O)Nc1cccc(N2CC(CN3CCN(c4ncncc4Nc4ccc(F)cc4C(=O)N(C(C)C)C(C)C)CC3)C2)c1`, the IC50 was 97.3 nM in series [1], 1330 nM with MV4-11 [2] and 4420 nM with REH.

Compound `CCN(C(=O)c1cc(F)ccc1Nc1cncnc1N1CCN(CC2CN(c3ccc(F)cc3)C2)CC1)C(C)C` registered an IC50 in series [1] of 276 nM.

Take `CCN(C(=O)c1cc(F)ccc1Nc1cncnc1N1CCN(CC2CN(c3ccc(S(C)(=O)=O)cc3)C2)CC1)C(C)C`: the IC50 in [1] is 66.5 nM.

For `CCN(C(=O)c1cc(F)ccc1Nc1cncnc1N1CCN(C(=O)C2CN(c3ccc(S(=O)(=O)C4CN(C(=O)/C=C/CN(C)C)C4)cc3)C2)CC1)C(C)C`, the IC50 in [1] was 12.9 nM; in the series on MV4-11 [2], 50 nM; with REH, over 20000 nM.

Take `CCN(C(=O)c1cc(F)ccc1Nc1cncnc1N1CCN(CC2CN(c3ccc(S(=O)(=O)C4CN(C(=O)/C=C/CN5CCCC5)C4)cc3)C2)CC1)C(C)C`: the IC50 in [1] amounted to 16.3 nM; in the series on MV4-11 [2] it was 32 nM; in the series with REH, 6980 nM.

Consider `CCC(=O)N[C@@H]1CCN(S(=O)(=O)c2ccc(N3CC(CN4CCN(c5ncncc5Nc5ccc(F)cc5C(=O)N(CC)C(C)C)CC4)C3)cc2)C1`, for which the IC50 is 52.2 nM in series [1], 1470 nM in the series on MV4-11 [2] and over 20000 nM in the series with REH.

As to `CCN(C(=O)c1cc(F)ccc1Nc1cncnc1N1CCN(CC2CN(c3ccc(C#N)cc3)C2)CC1)C(C)C`, in series [1], it took 38.8 nM to reach half-maximal inhibition (IC50).

On to `COC(=O)N[C@H]1CCC[C@@H]1[C@](C#N)(c1cccc(F)c1)C1CCN(CC2CN(c3ccc(S(=O)(=O)C4CN(C(=O)/C=C/CN(C)C)C4)cc3)C2)CC1`, for which, in the series with MV4-11 [3], the IC50 came to 2.7 nM.

Regarding `CCC(=O)Nc1cccc(N2CC(CN3CCN(c4ncncc4Nc4ccc(F)cc4C(=O)N(C(C)C)C(C)C)CC3)C2)c1`, the results for the IC50 (in [1]; with MV4-11 [2]; in the series with REH) were 95.6 nM, 1510 nM and over 20000 nM, respectively.

For `CCN(C(=O)c1cc(F)ccc1Nc1cncnc1N1CCN(CC2CN(c3ccc(NC(=O)/C=C/CN(C)C)cc3)C2)CC1)C(C)C`, the IC50 is 61.9 nM in series [1], 1100 nM with MV4-11 [2] and over 20000 nM in the series with REH.

Take `CCC(=O)NC1CN(S(=O)(=O)c2ccc(N3CC(CN4CCN(c5ncncc5Nc5ccc(F)cc5C(=O)N(CC)C(C)C)CC4)C3)cc2)C1`: the figures for the IC50 (in series [1]; with MV4-11 [2]; with REH) were 34.2 nM, 875 nM and over 20000 nM, respectively.

With `C=CC(=O)Nc1ccc(N2CC(CN3CCN(c4ncncc4Nc4ccc(F)cc4C(=O)N(C(C)C)C(C)C)CC3)C2)cc1`, the IC50 in series [1] was 34 nM; in the series on MV4-11 [2], 530 nM; in the series with REH it was 4280 nM.

Turning to `CCN(C(=O)c1cc(F)ccc1Nc1cncnc1N1CCN(CC2CN(c3ccc(NS(C)(=O)=O)cc3)C2)CC1)C(C)C`, it took 27.3 nM to reach half-maximal inhibition in series [1] (IC50).

The compound `CCC(=O)c1ccc(N2CC(CN3CCN(c4ncncc4Nc4ccc(F)cc4C(=O)N(CC)C(C)C)CC3)C2)cc1` displayed an IC50 in [1] of 49.7 nM.

Take `C[C@@H]1C[C@@H]([C@H](O)CC2CC(=O)NC(=O)C2)C(=O)[C@@H](C)C1` [CYCLOHEXIMIDE]: the “fold change (FC)” value in [4] was 0.55; in series [5], 0.41; in [6], 0.007; in series [7], 0.007.

As for `CCN(C(=O)c1cc(F)ccc1Oc1cncnc1N1CCN(CC2CN(c3ccc(S(=O)(=O)C4CN(C(=O)/C=C/CN(C)C)C4)cc3)C2)CC1)C(C)C`, the IC50 in [1] amounted to 14.5 nM; in the series with MV4-11 [2], 40 nM; with REH it was 11400 nM.

Regarding `CCC(=O)Nc1ccc(N2CC(CN3CCN(c4ncncc4Nc4ccc(F)cc4C(=O)N(C(C)C)C(C)C)CC3)C2)cc1`, the IC50 in series [1] was 48.3 nM; in the series with MV4-11 [2], 770 nM; in the series with REH, 8260 nM.

On to `C=CC(=O)N1CC(S(=O)(=O)c2ccc(N3CC(CN4CCN(c5ncncc5Nc5ccc(F)cc5C(=O)N(C(C)C)C(C)C)CC4)C3)cc2)C1`, for which the IC50 in series [1] was determined as 33.9 nM; in the series with MV4-11 [2], 220 nM; in the series on REH, 4810 nM.

Turning to `CCC(=O)N[C@H]1CCN(S(=O)(=O)c2ccc(N3CC(CN4CCN(c5ncncc5Nc5ccc(F)cc5C(=O)N(CC)C(C)C)CC4)C3)cc2)C1`, the IC50 is 61.3 nM in series [1], 2240 nM with MV4-11 [2] and over 20000 nM in the series on REH.

As to `CCN(C(=O)c1cc(F)ccc1Oc1cncnc1N1CC2(CCN(C[C@H]3CC[C@H](NS(=O)(=O)CC)CC3)CC2)C1)C(C)C` [REVUMENIB], the IC50 in series [1] amounted to 15.5 nM. Moreover, the IC50 at 7 days in [8] was over 3000 nM.

For the compound `CC(C)C[C@H](NC(=O)[C@H](CCc1ccccc1)NC(=O)CN1CCOCC1)C(=O)N[C@@H](Cc1ccccc1)C(=O)N[C@@H](CC(C)C)C(=O)[C@@]1(C)CO1` [CARFILZOMIB], in series [9], the “fold change (FC)” value turned out to be 1.16.

In the case of `C=CC(=O)N[C@H]1CCN(S(=O)(=O)c2ccc(N3CC(CN4CCN(c5ncncc5Nc5ccc(F)cc5C(=O)N(CC)C(C)C)CC4)C3)cc2)C1`, the IC50 in [1] was 51.4 nM; in the series on MV4-11 [2], 607 nM; in the series with REH, over 20000 nM.

For the compound `CCN(C(=O)c1cc(F)ccc1Nc1cncnc1N1CCN(CC2CN(c3ccc([N+](=O)[O-])cc3)C2)CC1)C(C)C`, in series [1], inhibition was half-maximal at 50.2 nM (IC50).

For the compound `C=CC(=O)N[C@@H]1CCN(S(=O)(=O)c2ccc(N3CC(CN4CCN(c5ncncc5Nc5ccc(F)cc5C(=O)N(CC)C(C)C)CC4)C3)cc2)C1`, the values for the IC50 (in series [1]; in the series on MV4-11 [2]; in the series with REH) were 31.8 nM, 1260 nM and over 20000 nM, respectively.
